{"source": "patent US9271993B2", "about": "“Treatment of bacterial infectious diseases” (priority 2010, dated 2016)", "key": {"[1]": {"system": "clinical isolates of M. tuberculosis", "format": "cell-based"}, "[2]": {"system": "clinical isolates of multidrug-resistant M. tuberculosis"}}, "note": "Read-outs that look alike come from different tables or passages of the source."}
{"compound": "NCC[C@H](O)C(=O)N[C@@H]1C[C@H](N)[C@@H](O[C@H]2O[C@H](CN)[C@@H](O)[C@H](O)[C@H]2O)[C@H](O)[C@H]1O[C@H]1O[C@H](CO)[C@@H](O)[C@H](N)[C@H]1O", "note": "[Amikacin]", "values": [{"measurement": "Activity (resistant/susceptible)", "setting": "[1]; strain 176949/08, 0.25 μg/ml", "result": "R"}, {"measurement": "Activity (resistant/susceptible)", "setting": "[1]; strain 176949/08, 1 μg/ml", "result": "S"}, {"measurement": "Activity (resistant/susceptible)", "setting": "[1]; strain 176949/08, 4 μg/ml", "result": "S"}, {"measurement": "Activity (resistant/susceptible)", "setting": "[1]; strain 177581/08, 0.25 μg/ml", "result": "R"}, {"measurement": "Activity (resistant/susceptible)", "setting": "[1]; strain 177581/08, 1 μg/ml", "result": "S"}, {"measurement": "Activity (resistant/susceptible)", "setting": "[1]; strain 177581/08, 4 μg/ml", "result": "S"}, {"measurement": "Activity (resistant/susceptible)", "setting": "[1]; strain 177958/08, 0.25 μg/ml", "result": "R"}, {"measurement": "Activity (resistant/susceptible)", "setting": "[1]; strain 177958/08, 1 μg/ml", "result": "S"}, {"measurement": "Activity (resistant/susceptible)", "setting": "[1]; strain 177958/08, 4 μg/ml", "result": "S"}, {"measurement": "Activity (resistant/susceptible)", "setting": "[1]; strain 178331/08, 0.25 μg/ml", "result": "R"}, {"measurement": "Activity (resistant/susceptible)", "setting": "[1]; strain 178331/08, 1 μg/ml", "result": "S"}, {"measurement": "Activity (resistant/susceptible)", "setting": "[1]; strain 178331/08, 4 μg/ml", "result": "S"}, {"measurement": "Activity (resistant/susceptible)", "setting": "[1]; strain 178557/08, 0.25 μg/ml", "result": "R"}, {"measurement": "Activity (resistant/susceptible)", "setting": "[1]; strain 178557/08, 1 μg/ml", "result": "S"}, {"measurement": "Activity (resistant/susceptible)", "setting": "[1]; strain 178557/08, 4 μg/ml", "result": "S"}]}
{"compound": "CNC1C(OC2OC(CO)C(N)C(O)C2O)OC2CC(N)C(OC3C(N)CC(N)C(O)C3O)OC2C1O", "note": "(centres unmarked) [Apramycin]", "values": [{"measurement": "Activity (resistant/susceptible)", "setting": "[1]; strain 176949/08, 0.25 μg/ml", "result": "R"}, {"measurement": "Activity (resistant/susceptible)", "setting": "[1]; strain 176949/08, 1 μg/ml", "result": "S"}, {"measurement": "Activity (resistant/susceptible)", "setting": "[1]; strain 176949/08, 4 μg/ml", "result": "S"}, {"measurement": "Activity (resistant/susceptible)", "setting": "[1]; strain 177581/08, 0.25 μg/ml", "result": "R"}, {"measurement": "Activity (resistant/susceptible)", "setting": "[1]; strain 177581/08, 1 μg/ml", "result": "S"}, {"measurement": "Activity (resistant/susceptible)", "setting": "[1]; strain 177581/08, 4 μg/ml", "result": "S"}, {"measurement": "Activity (resistant/susceptible)", "setting": "[1]; strain 177712/08, 0.25 μg/ml", "result": "R"}, {"measurement": "Activity (resistant/susceptible)", "setting": "[1]; strain 177712/08, 1 μg/ml", "result": "S"}, {"measurement": "Activity (resistant/susceptible)", "setting": "[1]; strain 177712/08, 4 μg/ml", "result": "S"}, {"measurement": "Activity (resistant/susceptible)", "setting": "[1]; strain 177809/08, 0.25 μg/ml", "result": "R"}, {"measurement": "Activity (resistant/susceptible)", "setting": "[1]; strain 177809/08, 1 μg/ml", "result": "S"}, {"measurement": "Activity (resistant/susceptible)", "setting": "[1]; strain 177809/08, 4 μg/ml", "result": "S"}, {"measurement": "Activity (resistant/susceptible)", "setting": "[1]; strain 177958/08, 0.25 μg/ml", "result": "R"}, {"measurement": "Activity (resistant/susceptible)", "setting": "[1]; strain 177958/08, 1 μg/ml", "result": "S"}, {"measurement": "Activity (resistant/susceptible)", "setting": "[1]; strain 177958/08, 4 μg/ml", "result": "S"}, {"measurement": "Activity (resistant/susceptible)", "setting": "[1]; strain 178122/08, 0.25 μg/ml", "result": "R"}, {"measurement": "Activity (resistant/susceptible)", "setting": "[1]; strain 178122/08, 1 μg/ml", "result": "S"}, {"measurement": "Activity (resistant/susceptible)", "setting": "[1]; strain 178122/08, 4 μg/ml", "result": "S"}, {"measurement": "Activity (resistant/susceptible)", "setting": "[1]; strain 178242/08, 0.25 μg/ml", "result": "R"}, {"measurement": "Activity (resistant/susceptible)", "setting": "[1]; strain 178242/08, 1 μg/ml", "result": "S"}, {"measurement": "Activity (resistant/susceptible)", "setting": "[1]; strain 178242/08, 4 μg/ml", "result": "S"}, {"measurement": "Activity (resistant/susceptible)", "setting": "[1]; strain 178331/08, 0.25 μg/ml", "result": "R"}, {"measurement": "Activity (resistant/susceptible)", "setting": "[1]; strain 178331/08, 1 μg/ml", "result": "S"}, {"measurement": "Activity (resistant/susceptible)", "setting": "[1]; strain 178331/08, 4 μg/ml", "result": "S"}, {"measurement": "Activity (resistant/susceptible)", "setting": "[1]; strain 178557/08, 0.25 μg/ml", "result": "R"}, {"measurement": "Activity (resistant/susceptible)", "setting": "[1]; strain 178557/08, 1 μg/ml", "result": "S"}, {"measurement": "Activity (resistant/susceptible)", "setting": "[1]; strain 178557/08, 4 μg/ml", "result": "S"}, {"measurement": "Activity (resistant/susceptible)", "setting": "[1]; strain 178594/08, 0.25 μg/ml", "result": "R"}, {"measurement": "Activity (resistant/susceptible)", "setting": "[1]; strain 178594/08, 1 μg/ml", "result": "S"}, {"measurement": "Activity (resistant/susceptible)", "setting": "[1]; strain 178594/08, 4 μg/ml", "result": "S"}, {"measurement": "Activity (resistant/susceptible)", "setting": "[2]; strain 186002/10, 0.25 μg/ml", "result": "R"}, {"measurement": "Activity (resistant/susceptible)", "setting": "[2]; strain 186002/10, 1 μg/ml", "result": "S"}, {"measurement": "Activity (resistant/susceptible)", "setting": "[2]; strain 186002/10, 4 μg/ml", "result": "S"}, {"measurement": "Activity (resistant/susceptible)", "setting": "[2]; strain 186002/10, 10 μg/ml", "result": "S"}, {"measurement": "Activity (resistant/susceptible)", "setting": "[2]; strain 186005/09, 0.25 μg/ml", "result": "R"}, {"measurement": "Activity (resistant/susceptible)", "setting": "[2]; strain 186005/09, 1 μg/ml", "result": "S"}, {"measurement": "Activity (resistant/susceptible)", "setting": "[2]; strain 186005/09, 4 μg/ml", "result": "S"}, {"measurement": "Activity (resistant/susceptible)", "setting": "[2]; strain 186005/09, 10 μg/ml", "result": "S"}, {"measurement": "Activity (resistant/susceptible)", "setting": "[2]; strain 186010/09, 0.25 μg/ml", "result": "R"}, {"measurement": "Activity (resistant/susceptible)", "setting": "[2]; strain 186010/09, 1 μg/ml", "result": "S"}, {"measurement": "Activity (resistant/susceptible)", "setting": "[2]; strain 186010/09, 4 μg/ml", "result": "S"}, {"measurement": "Activity (resistant/susceptible)", "setting": "[2]; strain 186010/09, 10 μg/ml", "result": "S"}, {"measurement": "Activity (resistant/susceptible)", "setting": "[2]; strain 186013/09, 0.25 μg/ml", "result": "R"}, {"measurement": "Activity (resistant/susceptible)", "setting": "[2]; strain 186013/09, 1 μg/ml", "result": "S"}, {"measurement": "Activity (resistant/susceptible)", "setting": "[2]; strain 186013/09, 4 μg/ml", "result": "S"}, {"measurement": "Activity (resistant/susceptible)", "setting": "[2]; strain 186013/09, 10 μg/ml", "result": "S"}, {"measurement": "Activity (resistant/susceptible)", "setting": "[2]; strain 186014/09, 0.25 μg/ml", "result": "R"}, {"measurement": "Activity (resistant/susceptible)", "setting": "[2]; strain 186014/09, 1 μg/ml", "result": "S"}, {"measurement": "Activity (resistant/susceptible)", "setting": "[2]; strain 186014/09, 4 μg/ml", "result": "S"}, {"measurement": "Activity (resistant/susceptible)", "setting": "[2]; strain 186014/09, 10 μg/ml", "result": "S"}]}
{"compound": "[H]/N=C(/N)N[C@H]1[C@H](O)[C@@H](O)[C@H](O[C@@H]2O[C@@H](C)[C@](O)(C=O)[C@H]2O[C@@H]2O[C@@H](CO)[C@H](O)[C@@H](O)[C@@H]2NC)[C@@H](N/C(N)=N\\[H])[C@@H]1O", "note": "[Streptomycin]", "values": [{"measurement": "Activity (resistant/susceptible)", "setting": "[1]; strain 176949/08, 0.25 μg/ml", "result": "S"}, {"measurement": "Activity (resistant/susceptible)", "setting": "[1]; strain 176949/08, 1 μg/ml", "result": "S"}, {"measurement": "Activity (resistant/susceptible)", "setting": "[1]; strain 176949/08, 4 μg/ml", "result": "S"}, {"measurement": "Activity (resistant/susceptible)", "setting": "[1]; strain 177581/08, 0.25 μg/ml", "result": "S"}, {"measurement": "Activity (resistant/susceptible)", "setting": "[1]; strain 177581/08, 1 μg/ml", "result": "S"}, {"measurement": "Activity (resistant/susceptible)", "setting": "[1]; strain 177581/08, 4 μg/ml", "result": "S"}, {"measurement": "Activity (resistant/susceptible)", "setting": "[1]; strain 177958/08, 0.25 μg/ml", "result": "R"}, {"measurement": "Activity (resistant/susceptible)", "setting": "[1]; strain 177958/08, 1 μg/ml", "result": "S"}, {"measurement": "Activity (resistant/susceptible)", "setting": "[1]; strain 177958/08, 4 μg/ml", "result": "S"}, {"measurement": "Activity (resistant/susceptible)", "setting": "[1]; strain 178331/08, 0.25 μg/ml", "result": "R"}, {"measurement": "Activity (resistant/susceptible)", "setting": "[1]; strain 178331/08, 1 μg/ml", "result": "S"}, {"measurement": "Activity (resistant/susceptible)", "setting": "[1]; strain 178331/08, 4 μg/ml", "result": "S"}, {"measurement": "Activity (resistant/susceptible)", "setting": "[1]; strain 178557/08, 0.25 μg/ml", "result": "R"}, {"measurement": "Activity (resistant/susceptible)", "setting": "[1]; strain 178557/08, 1 μg/ml", "result": "S"}, {"measurement": "Activity (resistant/susceptible)", "setting": "[1]; strain 178557/08, 4 μg/ml", "result": "S"}]}
